One assay relates to HCT-116 Firefly-luciferase reporter cells. As to the kind of experiment: Cellular c-MYC Reporter Assay. As to conditions: Homo sapiens; untitled table following Table 8a; HCT-116 Firefly-luciferase reporter cells, 24 h; read-out: pIC50 (converted). Type of assay: cell-based. The procedure:
HCT-116 Firefly-luciferase reporter cells (BPS Bioscience) were seeded in 96-well tissue-culture treated sterile plates (Greiner Bio-One) at 5e4 cells/mL in 100 μL complete growth media (McCoy's 5A+10% FBS, +1% Pen-Strep, +1% G418). Cells were incubated at 37° C. with 5% CO2 for 4-6 h then treated with 3× compound solution in 50 μL complete growth media for a final volume of 150 μL per well with 0.2% DMSO. After 24 h incubation at 37° C. with 5% CO2, plates were allowed to equilibrate to RT for 20 min then developed by addition of 100 μL ONE-Glo Luciferase detection reagent (Promega), incubated at RT for 10 min. Luminescence was recorded using a SpectraMax i3x plate reader (Molecular Devices) and analyzed using Prism GraphPad 9 software.
Take `Cn1cc(-c2ccc3c(N(C(=O)c4ccc(-n5nnc6cccnc65)cc4F)[C@@H]4CCCNC4)nccc3c2)cn1` [Example 97, (R)-4-(3H-[1,2,3]triazolo[4,5-b]pyridin-3-yl)-2-fluoro-N-(6-(1-methyl-1H-pyrazol-4-yl)isoquinolin-1-yl)-N-(piperidin-3-yl)benzamide]: the IC50 is 380 nM.
As to `CCOC(=O)/C=C/c1ccc2c(N(C(=O)c3ccc(-n4nnc5cccnc54)cc3F)[C@@H]3CCCNC3)nccc2c1` [Example 98, ethyl (R,E)-3-(1-(4-(3H-[1,2,3]triazolo[4,5-b]pyridin-3-yl)-2-fluoro-N-(piperidin-3-yl)benzamido)isoquinolin-6-yl)acrylate], the IC50 is 759 nM.
Same read-out and setting: then `CC(C)(C)[Si](C)(C)OC/C=C/c1cc2c(N(C(=O)c3ccc(-n4nnc5cccnc54)cc3F)[C@@H]3CCCNC3)nccc2s1` [Example 99, (R,E)-4-(3H-[1,2,3]triazolo[4,5-b]pyridin-3-yl)-N-(2-(3-((tert-butyldimethylsilyl)oxy)prop-1-en-1-yl)thieno[3,2-c]pyridin-4-yl)-2-fluoro-N-(piperidin-3-yl)benzamide], with 2000 nM.
Still for that read-out and setting: then `CCOC(=O)/C=C/c1cccc2ccnc(N(C(=O)c3ccc(-c4cn(C)nn4)cc3)[C@@H]3CCCNC3)c12` [Example 100, ethyl (R,E)-3-(1-(4-(1-methyl-1H-1,2,3-triazol-4-yl)-N-(piperidin-3-yl)benzamido)isoquinolin-8-yl)acrylate], with 1170 nM; and `Cn1cc(-c2ccc(C(=O)N(c3ncccc3-c3cc[nH]n3)[C@@H]3CCCNC3)cc2)nn1` [Example 101, (R)—N-(3-(1H-pyrazol-3-yl)pyridin-2-yl)-4-(1-methyl-1H-1,2,3-triazol-4-yl)-N-(piperidin-3-yl)benzamide], with over 10000 nM; and `C=Cc1cccc2ccnc(N(C(=O)c3ccc(-n4nnc5cccnc54)cc3F)[C@@H]3CCCNC3)c12` [Example 102, (R)-4-(3H-[1,2,3]triazolo[4,5-b]pyridin-3-yl)-2-fluoro-N-(piperidin-3-yl)-N-(8-vinylisoquinolin-1-yl)benzamide], with 46.8 nM.
On the same count and under the same terms, then `O=C(c1ccc(-n2nnc3cccnc32)cc1F)N(c1nccc2ccc(C#CCO)cc12)[C@@H]1CCCNC1` [Example 103, (R)-4-(3H-[1,2,3]triazolo[4,5-b]pyridin-3-yl)-2-fluoro-N-(7-(3-hydroxyprop-1-yn-1-yl)isoquinolin-1-yl)-N-(piperidin-3-yl)benzamide], with 776 nM.
Consider `O=C(c1ccc(-n2nnc3cccnc32)cc1F)N(c1ncccc1/C=C/CCO)[C@@H]1CCCNC1` [Example 104, 2-fluoro-N-[3-[(E)-4-hydroxybut-1-enyl]-2-pyridyl]-N-[(3R)-3-piperidyl]-4-(triazolo[4,5-b]pyridin-3-yl)benzamide], for which the IC50 is 8910 nM.
Regarding `O=C(c1ccc(-n2nnc3cccnc32)cc1F)N(c1ncccc1C#CCCO)[C@@H]1CCCNC1` [Example 105, 2-fluoro-N-[3-(4-hydroxybut-1-ynyl)-2-pyridyl]-N-[(3R)-3-piperidyl]-4-(triazolo[4,5-b]pyridin-3-yl)benzamide], the IC50 was 6310 nM.
On the same count and under the same terms, then `O=C(c1ccc(-n2nnc3cccnc32)cc1F)N(c1nccc2cc(-c3cn[nH]c3)ccc12)[C@@H]1CCCNC1` [Example 106, (R)—N-(6-(1H-pyrazol-4-yl)isoquinolin-1-yl)-4-(3H-[1,2,3]triazolo[4,5-b]pyridin-3-yl)-2-fluoro-N-(piperidin-3-yl)benzamide], with 537 nM; and `C#Cc1cccnc1N(C(=O)c1ccc(-n2nnc3cccnc32)cc1F)[C@@H]1CCCNC1` [Example 107, (R)-4-(3H-[1,2,3]triazolo[4,5-b]pyridin-3-yl)-N-(3-ethynylpyridin-2-yl)-2-fluoro-N-(piperidin-3-yl)benzamide], with 977 nM.
Still for that read-out and setting: then `C=C(C)c1cccnc1N(C(=O)c1ccc(-n2nnc3cccnc32)cc1F)[C@@H]1CCCNC1` [Example 108, (R)-4-(3H-[1,2,3]triazolo[4,5-b]pyridin-3-yl)-2-fluoro-N-(piperidin-3-yl)-N-(3-(prop-1-en-2-yl)pyridin-2-yl)benzamide], with 129 nM.
Consider `Cn1cc(-c2ccc(C(=O)N(c3cc(/C=C/c4ccccc4)ccn3)[C@@H]3CCCNC3)cc2)nn1` [Example 109, (R,E)-4-(1-methyl-1H-1,2,3-triazol-4-yl)-N-(piperidin-3-yl)-N-(4-styrylpyridin-2-yl)benzamide], for which the IC50 was over 10000 nM.
In the case of `Cn1cc(-c2ccc(C(=O)N(c3cc(-c4cc[nH]n4)ccn3)[C@@H]3CCCNC3)cc2)nn1` [Example 110, 4-(1-methyltriazol-4-yl)-N-[(3R)-3-piperidyl]-N-[4-(1H-pyrazol-3-yl)-2-pyridyl] benzamide], the IC50 was over 10000 nM.
The same measure, in the same setting: then `Cc1cccc2ccnc(N(C(=O)c3ccc(-c4cn(C)nn4)cc3)[C@@H]3CCCNC3)c12` [Example 111, (R)-4-(1-methyl-1H-1,2,3-triazol-4-yl)-N-(8-methylisoquinolin-1-yl)-N-(piperidin-3-yl) benzamide], with 513 nM.
On the same count and under the same terms, then `Cn1cnc(-c2cccnc2N(C(=O)c2ccc(-n3nnc4cccnc43)cc2F)[C@@H]2CCCNC2)c1` [Example 112, (R)-4-(3H-[1,2,3]triazolo[4,5-b]pyridin-3-yl)-2-fluoro-N-(3-(1-methyl-1H-imidazol-4-yl)pyridin-2-yl)-N-(piperidin-3-yl)benzamide], with 380 nM.

A further assay has as its system MV-4-11 cells. In words: Cell Viability Assay in MV-4-11 Cells. In kind it is cell-based. As to conditions: Homo sapiens, MV4-11, 72 h, MV-4-11 cells, 72 h, Cell-Titer Glo; read-out: IC50. A digest of the protocol:
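MV-4-11 cells at 7,000/well in IMDM with 10% FBS, exposed to compound for 72 h. Viability by CellTiter-Glo luminescence, normalized to DMSO as 100%, fitted with a four-parameter curve.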
As for `Cc1cccc2ccnc(N(C(=O)c3ccc(Nc4nccc(N5CCC(c6ccncc6)CC5)n4)cc3F)[C@@H]3CCCNC3)c12` [Example 962, (R)-2-fluoro-N-(8-methylisoquinolin-1-yl)-N-(piperidin-3-yl)-4-((4-(4-(pyridin-4-yl)piperidin-1-yl)pyrimidin-2-yl)amino)benzamide], the IC50 stood at 15 nM.
Regarding `Cc1cccc2ccnc(N(C(=O)c3ccc(Nc4nccc(N5CCC(C)(CO)CC5)n4)cc3F)[C@@H]3CCCNC3)c12` [Example 963, 2-fluoro-4-({4-[4-(hydroxymethyl)-4-methylpiperidin-1-yl]pyrimidin-2-yl}amino)-N-(8-methylisoquinolin-1-yl)-N-[(3R)-piperidin-3-yl]benzamide], the IC50 came to 12 nM.
Same read-out and setting: then `COCC1CCN(c2ccnc(Nc3ccc(C(=O)N(c4nccc5cccc(C)c45)[C@@H]4CCCNC4)c(F)c3)n2)CC1` [Example 964, (R)-2-fluoro-4-((4-(4-(methoxymethyl)piperidin-1-yl)pyrimidin-2-yl)amino)-N-(8-methylisoquinolin-1-yl)-N-(piperidin-3-yl)benzamide], with 64 nM.
On the same count and under the same terms, then `COC(=O)[C@H]1CCCN1c1ccnc(Nc2ccc(C(=O)N(c3nccc4cccc(C)c34)[C@@H]3CCCNC3)c(F)c2)n1` [Example 965, methyl (2-((3-fluoro-4-((8-methylisoquinolin-1-yl)((R)-piperidin-3-yl)carbamoyl)phenyl)amino)pyrimidin-4-yl)-D-prolinate], with 130 nM; and `Cc1cccc2ccnc(N(C(=O)c3ccc(Nc4nccc(N5CCC[C@@H]5CO)n4)cc3F)[C@@H]3CCCNC3)c12` [Example 966, 2-fluoro-4-({4-[(2R)-2-(hydroxymethyl)pyrrolidin-1-yl]pyrimidin-2-yl}amino)-N-(8-methylisoquinolin-1-yl)-N-[(3R)-piperidin-3-yl]benzamide], with 32 nM; and `Cc1cccc2ccnc(N(C(=O)c3ccc(Nc4nccc(N5CC[C@H](N(C)C)C5)n4)cc3F)[C@@H]3CCCNC3)c12` [Example 967, 4-({4-[(3S)-3-(dimethylamino)pyrrolidin-1-yl]pyrimidin-2-yl}amino)-2-fluoro-N-(8-methylisoquinolin-1-yl)-N-[(3R)-piperidin-3-yl]benzamide], with 48 nM.
The same measure, in the same setting: then `Cc1cccc2ccnc(N(C(=O)c3ccc(Nc4ncnc(N5CCCC5)n4)cc3F)[C@@H]3CCCNC3)c12` [Example 968, 2-fluoro-N-(8-methylisoquinolin-1-yl)-N-[(3R)-piperidin-3-yl]-4-{[4-(pyrrolidin-1-yl)-1,3,5-triazin-2-yl]amino}benzamide], with 40 nM; and `Cc1cccc2ccnc(N(C(=O)c3ccc(Nc4ncnc(N5CCCCC5)n4)cc3F)[C@@H]3CCCNC3)c12` [Example 969, 2-fluoro-N-(8-methylisoquinolin-1-yl)-4-{[4-(piperidin-1-yl)-1,3,5-triazin-2-yl]amino}-N-[(3R)-piperidin-3-yl]benzamide], with 45 nM.
On to `Cc1cccc2ccnc(N(C(=O)c3ccc(Nc4ncnc(N5CCOCC5)n4)cc3F)[C@@H]3CCCNC3)c12` [Example 970, 2-fluoro-N-(8-methylisoquinolin-1-yl)-4-{[4-(morpholin-4-yl)-1,3,5-triazin-2-yl]amino}-N-[(3R)-piperidin-3-yl]benzamide], for which the IC50 was 34 nM.
Same read-out and setting: then `Cc1cccc2ccnc(N(C(=O)c3ccc(Nc4ncnc(-c5ccccc5)n4)cc3F)[C@@H]3CCCNC3)c12` [Example 971, (R)-2-fluoro-N-(8-methylisoquinolin-1-yl)-4-(4-phenyl-1,3,5-triazin-2-ylamino)-N-(piperidin-3-yl)benzamide], with 107 nM; and `Cc1cccc2ccnc(N(C(=O)c3ccc(Nc4nccc(CN5CCC(F)(F)CC5)n4)cc3)[C@@H]3CCCNC3)c12` [Example 972, (R)-4-((4-((4,4-difluoropiperidin-1-yl)methyl)pyrimidin-2-yl)amino)-N-(8-methylisoquinolin-1-yl)-N-(piperidin-3-yl)benzamide], with 213 nM.
